Assay results as given in PubChem BioAssay (NCI).
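Dose response: 5 concentrations. Exposure: 48 h. Format: 96-well plates. Endpoint: linear interpolation; highest concentration if not reached. TGI: concentration producing complete growth inhibition.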

Legend:
Test in all cases: growth of human tumour cells (NCI), 48 h
HL-60(TB) leukemia = test system: HL-60(TB) leukemia
MOLT-4 leukemia = test system: MOLT-4 leukemia
BT-549 breast = test system: BT-549 breast
OVCAR-8 ovarian = test system: OVCAR-8 ovarian
SW-620 colon = test system: SW-620 colon
HOP-92 NSCLC = test system: HOP-92 NSCLC
KM12 colon = test system: KM12 colon
SK-MEL-5 melanoma = test system: SK-MEL-5 melanoma
HCT-116 colon = test system: HCT-116 colon
RXF 393 renal = test system: RXF 393 renal
EKVX NSCLC = test system: EKVX NSCLC
MCF7 breast = test system: MCF7 breast
CCRF-CEM leukemia = test system: CCRF-CEM leukemia
NCI-H460 lung = test system: NCI-H460 lung
ACHN renal = test system: ACHN renal
NCI/ADR-RES ovarian = test system: NCI/ADR-RES ovarian
A498 renal = test system: A498 renal
K-562 leukemia = test system: K-562 leukemia
HT29 colon = test system: HT29 colon

Structure (SMILES)	TGI (HL-60(TB) leukemia) [µM]	TGI (MOLT-4 leukemia) [µM]	TGI (BT-549 breast) [µM]	TGI (OVCAR-8 ovarian) [µM]	TGI (SW-620 colon) [µM]	TGI (HOP-92 NSCLC) [µM]	TGI (KM12 colon) [µM]	TGI (SK-MEL-5 melanoma) [µM]	TGI (HCT-116 colon) [µM]	TGI (RXF 393 renal) [µM]	TGI (EKVX NSCLC) [µM]	TGI (MCF7 breast) [µM]	TGI (CCRF-CEM leukemia) [µM]	TGI (NCI-H460 lung) [µM]	TGI (ACHN renal) [µM]	TGI (NCI/ADR-RES ovarian) [µM]	TGI (A498 renal) [µM]	TGI (K-562 leukemia) [µM]	TGI (HT29 colon) [µM]
O=P1(c2ccccc2)c2ccccc2CCc2ccccc21	> 100	> 100	> 100	> 100	> 100	> 100	> 100	> 100	> 100	> 100	> 100	> 100	> 100	–	–	–	–	–	–
Cc1ccc(/C(=C\C(=O)C(=O)NC23CC4CC(CC(C4)C2)C3)Sc2ccccc2)cc1	> 10	> 10	–	> 10	> 10	–	> 10	> 10	–	> 10	> 10	> 10	> 10	> 10	> 10	> 10	> 10	> 10	> 10
CCCc1c[nH]c(-c2ccc(-c3cc(CCC)c(C=O)[nH]3)s2)c1	49.8	86.2	–	26.5	33.7	–	28.5	30.6	31.9	36.1	–	–	91.4	16.9	33.5	–	20.5	49.8	18.3
CCOC(=O)C(C)(C(=O)OCC)/C(Cl)=C\Cl	> 100	> 100	–	> 100	> 100	> 100	> 100	> 100	> 100	> 100	> 100	> 100	> 100	> 100	> 100	> 100	–	> 100	> 100
C=C1CCCCCCCCCCC12SCCC2CCCCSC (stereo not given)	44.7	40.1	–	56.4	68.9	62.5	–	33.1	33.9	50.4	86.4	39.3	–	> 100	38.9	46.2	35.8	44	61.4
COc1ccc(/C=C2\N=C3Sc4c(nc[nH]c4=O)N3C2=O)cc1	> 100	> 100	–	> 100	> 100	> 100	> 100	> 100	> 100	> 100	> 100	> 100	> 100	–	> 100	> 100	> 100	> 100	> 100
Cc1cccc(/C=C2\CCCc3ccccc3C2=O)c1	29	68.6	75.6	78.3	30.7	58.5	26.1	–	31.2	–	57.1	56.2	35.1	36.5	86.6	69.2	–	48.8	46.6
COc1ccc(OC)c(C23CCCC(C2)N(C)CC3)c1 (stereo not given)	–	> 100	> 100	–	–	–	33.5	–	41.3	61.2	> 100	32.1	–	52	78.1	> 100	89.9	43	49.1
CN(C)c1nc2n(CCO)c(-c3ccccc3)c(-c3ccccc3)nc-2c(=O)n1	–	> 100	> 100	> 100	> 100	> 100	> 100	> 100	> 100	> 100	> 100	–	> 100	> 100	> 100	> 100	> 100	> 100	> 100
C=CCC(CC=O)(C(=O)OCC)C(=O)OCC	> 100	> 100	–	> 100	> 100	> 100	> 100	> 100	> 100	> 100	> 100	> 100	> 100	> 100	> 100	> 100	> 100	> 100	> 100
COC(=O)[C@H]1C[C@H]1NC(=O)C(CC(=O)OCc1ccccc1)NC(=O)OCc1ccccc1 (stereo not given in full)	39.6	> 100	55.9	> 100	> 100	–	77.1	55.9	> 100	–	> 100	> 100	> 100	72.4	> 100	91.5	> 100	> 100	> 100
O=c1oc2ccccc2c(O)c1C1c2c(c3ccccc3oc2=O)Oc2c1c(=O)oc1ccccc21	–	> 100	67.5	> 100	> 100	> 100	57.9	52.1	> 100	–	> 100	–	> 100	31.7	62.9	> 100	> 100	> 100	98
C=CCn1c(C23CC4CC(CC(C4)C2)C3)n[nH]c1=S	53.9	> 100	> 100	> 100	> 100	–	> 100	–	> 100	> 100	–	> 100	> 100	> 100	> 100	> 100	> 100	> 100	> 100
O=C1/C(=C/c2ccc(Cl)cc2)N=C(c2ccccc2)N1c1nc2ccccc2s1	18.4	57.7	–	> 100	> 100	> 100	> 100	> 100	> 100	> 100	> 100	> 100	> 100	> 100	> 100	> 100	97.1	> 100	> 100
COc1ccc2c(c1)c1c(n2CCN(C)C)-c2cccc(OC)c2CC1	–	26.8	40.5	42.4	–	44.2	25.4	35	50.3	–	35	29.5	15.1	41.5	38.8	47.3	44.9	16.4	14
